Experimental data published in patent publication US20040033517A1, “Compositions and methods relating to endothelial cell signaling using the protease activated receptor (PAR1)” (priority 2002, published 2004).
Read-outs that look alike come from different tables or passages of the source. Ends that are not written are not given here.

Tested on: human umbilical vein endothelial cells HUVEC-C
Format: cell-based
Excerpt: Microarray Analysis. […] Total RNA was isolated followed by reverse transcription. Purified double stranded cDNA was in vitro transcribed in the presence of biotinylated dUTP and dCTP, fragmented cRNA was hybridized to the HG-U95Av2 array (Affymetrix, Santa Clara, Calif.), followed by staining with streptavidin-phycoerythrin. Arrays were scanned and analyzed using GeneChip3.1 software. […] An average fold-induction for the three independent experiments was obtained by calculating the means of the logarithm of the individual fold-increases for each agonist.

[1] = HUVEC-C, 90 min, genes represented in FIG. 2 A-C
[2] = HUVEC-C, 90 min, higher variability, PAR1 enhanced (<1.3 fold with PAR2 agonist)
[3] = HUVEC-C, 90 min, higher variability, PAR2 enhanced (<1.3 fold with PAR1 agonist)
[4] = HUVEC-C, 90 min, higher variability, genes not induced by APC (<1.3 fold with APC)

SLIGRL [PAR2, SLIGRL]
Average fold induction, BIRC3 U45878 HUMAN INHIBITOR OF APOPTOSIS PROTEIN (IAP) 1: 1.41 fold
Average fold induction, NAB1 AF045451 NGFIA-BINDING PROTEIN: 1.38 fold
Average Induction, A1288757 qm11h01.x1 Homo sapiens cDNA [1]: 2.3 fold
Average Induction, A1670788 tz10c02.x1 Homo sapiens cDNA [1]: 1.4 fold
Average Induction, A1985272 ws06b05.x1 Homo sapiens cDNA [1]: 1.4 fold
Average Induction, A8022718 Homo sapiens m.RNA for DEPP (decidual protein induced by progesterone) [1]: 2.0 fold
Average Induction, AB004066 Homo sapiens mRNA for DEC1 [1]: 1.3 fold
Average Induction, AB014569 Homo sapiens mRNA for K1AA0669 protein [1]: 2.0 fold
Average Induction, AF017786 Homo sapiens phosphatidic acid phosphohydrolase homolog (Dri42) [1]: 1.6 fold
Average Induction, AF022375 Homo sapiens vascular endothelial growth factor mRNA [1]: 1.3 fold
Average Induction, AF039843 Homo sapiens Sprouty 2 (SPRY2) mRNA [1]: 1.8 fold
Average Induction, AF045451 Homo sapiens transcriptional regulatory protein p54 [1]: 1.4 fold
Average Induction, AF050110 Homo sapiens TGFb inducible early protein and early growth response protein alpha genes [1]: 1.4 fold
Average Induction, AF054182 Homo sapiens mitochondrial processing peptidase beta-subunit mRNA [1]: 1.3 fold
Average Induction, AF068197 Homo sapiens BCE-1 mRNA [1]: 1.8 fold
Average Induction, AF078077 Homo sapiens growth arrest and DNA-damage-inducible protein GADD45beta [1]: 1.3 fold
Average Induction, AJ005821 Homo sapiens mRNA for X-like 1 protein [1]: 1.6 fold
Average Induction, AL023584 Human DNA sequence from clone 67K17 on chromosome 6q24.1-24.3. [1]: 2.0 fold
Average Induction, AL031432 Human DNA sequence from clone 465N24 on chromosome 1p35.1-36.13. [1]: 2.6 fold
Average Induction, AL050078 Homo sapiens mRNA; cDNA DKFZp566G0746 [1]: 1.6 fold
Average Induction, AL096858 Novel human gene mapping to chomosome 1 [1]: 1.5 fold
Average Induction, Cluster Incl M22489 Human bone morphogenetic protein 2A (BMP-2A) [1]: 2.9 fold
Average Induction, Cluster Incl U12767 Human mitogen induced nuclear orphan receptor (MINOR) [1]: 3.4 fold
Average Induction, D15050 Human mRNA for transcription factor AREB6 [1]: 1.7 fold
Average Induction, D50917 Human mRNA for KIAA0127 gene [1]: 1.3 fold
Average Induction, D78579 Homo sapiens mRNA for neuron derived orphan receptor [1]: 1.4 fold
Average Induction, D86181 Homo sapiens DNA for galactocerebrosidase [1]: 1.5 fold
Average Induction, Guanine Nucleotide Exchange Factor 2 [1]: 1.4 fold
Average Induction, J02931 Human placental tissue factor (two forms) mRNA [1]: 2.7 fold
Average Induction, J04076 Human early growth response 2 protein (EGR2) mRNA [1]: 2.0 fold
Average Induction, J04111 Human c-jun proto oncogene (JUN) [1]: 1.5 fold
Average Induction, L05072 Homo sapiens interferon regulatory factor 1 gene [1]: 2.0 fold
Average Induction, L19871 Human activating transcription factor 3 (ATF3) [1]: 2.6 fold
Average Induction, L43821 Homo sapiens enhancer of filamentation (HEF1) mRNA [1]: 1.2 fold
Average Induction, M22489/FEATURE Human bone morphogenetic protein 2A (BMP-2A) [1]: 3.2 fold
Average Induction, M26683 Human interferon gamma treatment inducible mRNA [1]: 1.0 fold
Average Induction, M28211 Homo sapiens GTP-binding protein (RAB4) mRNA [1]: 2.7 fold
Average Induction, M28225 Human JE gene encoding a monocyte secretory protein [= MCP-1] [1]: 1.1 fold
Average Induction, M29039 Human transactivator (jun-B) gene [1]: 2.8 fold
Average Induction, M30474 Human kidney gamma-glutamyl transpeptidase type II mRNA [1]: 2.1 fold
Average Induction, M31516 Human decay-accelerating factor mRNA [1]: 1.9 fold
Average Induction, M36820 Human cytokine (GRO-beta) mRNA [1]: 1.6 fold
Average Induction, M59465 Human tumor necrosis factor alpha inducible protein A20 mRNA [1]: 1.3 fold
Average Induction, M60278 Human heparin-binding EGF-like growth factor mRNA [1]: 3.9 fold
Average Induction, M60721 Human homeobox gene [1]: 3.7 fold
Average Induction, M69043 Homo sapiens MAD-3 mRNA encoding 1kB-like activity [1]: 1.4 fold
Average Induction, M92843 H.sapiens zinc finger transcriptional regulator mRNA [1]: 3.4 fold
Average Induction, S81439 EGR alpha=early growth response gene alpha [1]: 1.4 fold
Average Induction, S81914 IEX-1=radiation-inducible immediate-early gene [1]: 1.2 fold
Average Induction, U04636 Human cyclooxygenase-2 (hCox-2) gene [1]: 1.3 fold
Average Induction, U07802 Human Tis1 1d gene [1]: 1.6 fold
Average Induction, U08015 Human NF-ATc mRNA [1]: 2.0 fold
Average Induction, U12767/FEATURE Human mitogen induced nuclear orphan receptor (MINOR) [1]: 3.3 fold
Average Induction, U15932 Human dual-specificity protein phosphatase [1]: 3.3 fold
Average Induction, U25997 Homo sapiens stanniocalcin precursor (STC) mRNA [1]: 1.4 fold
Average Induction, U43142 Human vascular endothelial growth factor related protein VRP [1]: 1.9 fold
Average Induction, U59863 Human TRAF-interacting protein I-TRAF mRNA [1]: 1.1 fold
Average Induction, U75697 Human transcription regulator RPD3-2B mRNA [1]: 2.6 fold
Average Induction, U79259 Human clone 23945 mRNA [1]: 1.7 fold
Average Induction, U81607 Homo sapiens gravin mRNA [1]: 1.3 fold
Average Induction, W27545 32c4 Homo sapiens cDNA [1]: 1.2 fold
Average Induction, X51345 Human jun-B mRNA for JUN-B protein [1]: 1.8 fold
Average Induction, X63741 H.sapiens pilot mRNA [1]: 3.0 fold
Average Induction, X68277 H.sapiens CL 100 mRNA for protein tyrosine phosphatase [1]: 2.8 fold
Average Induction, X75918 H.sapiens mRNA for NOT [1]: 3.3 fold
Average Induction, X89066 H.sapiens mRNA for TRPC1 protein [1]: 2.2 fold
Average Induction, X94216 H.sapiens mRNA for VEGF-C protein [1]: 2.1 fold
Average Induction, Y00630 Human mRNA for Arg-Serpin (plasminogen activator-inhibitor 2, PAI-2) [1]: 1.7 fold
Average Induction, Z25821 H.sapiens gene for mitochondrial dodecenoyl-CoA delta-isomerase [1]: 1.7 fold
Average Induction, Z48054 H.sapiens mRNA for peroxisomal targeting signal 1 (SKL type) receptor [1]: 1.9 fold
Average Induction, L13740 Human TR3 orphan receptor mRNA (HUVEC-C, 90 min, genes represented in FIG. 2 A-C, first probe set): 5.4 fold
Average Induction, L13740 Human TR3 orphan receptor mRNA (HUVEC-C, 90 min, genes represented in FIG. 2 A-C, second probe set): 5.4 fold
Average Induction, A1186701 qe82d12.x1 Homo sapiens cDNA [2]: 1.1 fold
Average Induction, A1953789 wx69d10.x1 Homo sapiens cDNA [2]: 0.9 fold
Average Induction, AF024710 Homo sapiens vascular endothelial growth factor (VEGF) [2]: 1.1 fold
Average Induction, AL035297 H.sapiens gene from PAC 747L4 [2]: 1.0 fold
Average Induction, M22299 Human T-plastin polypeptide mRNA [2]: 1.2 fold
Average Induction, U35735 Human RACH1 (RACH1) mRNA [2]: 1.1 fold
Average Induction, U87460 Human putative endothelin receptor type B-like protein mRNA [2]: 0.9 fold
Average Induction, A1038821 ox96d03.x1 Homo sapiens cDNA [3]: 2.0 fold
Average Induction, AC004475 Homo sapiens chromosome 19, cosmid F23858 [3]: 1.4 fold
Average Induction, AL049354 Homo sapiens mRNA; cDNA DKFZp566E183 [3]: 1.3 fold
Average Induction, L38696 Homo sapiens autoantigen p542 mRNA [3]: 1.3 fold
Average Induction, U27655 Human RGP3 mRNA [3]: 1.5 fold
Average Induction, U53831 Homo sapiens interferon regulatory factor 7B [3]: 1.5 fold
Average Induction, U58334 Human Bcl2, p53 binding protein Bbp/53BP2 (BBP/53BP2) mRNA [3]: 1.5 fold
Average Induction, U65093 Human msg1-related gene 1 (mrg1) mRNA [3]: 1.7 fold
Average Induction, W26851 17b12 Homo sapiens cDNA [3]: 1.6 fold
Average Induction, Y13115 Homo sapiens mRNA for serine/threonine protein kinase SAK [3]: 1.6 fold
Average Induction, Z25821 H.sapiens gene for mitochondrial dodecenoyl-CoA delta-isomerase [3]: 1.7 fold
Average Induction, AB028069 Homo sapiens mRNA for activator of S phase Kinase [4]: 2.0 fold
Average Induction, D38537 Human mRNA for protoporphyrinogen oxidase [4]: 1.6 fold
Average Induction, M83667 Human NF-IL6-beta protein [4]: 1.3 fold
Average Induction, U78082 Human RNA polymerase transcriptional regulation mediator (h-MED6) mRNA [4]: 1.3 fold
Average Induction, U85267 Homo sapiens down syndrome candidate region 1 (DSCR1) gene [4]: 2.0 fold
